From the supplement of paper PMC10307832

How the values were obtained:
Assay in all cases: relative viability (nuclei count vs DMSO), 5 days (fraction); higher = more cells survive
[1] = compound: Cc1ccc(-n2nc(C(C)(C)C)cc2NC(=O)Nc2ccc(OCCN3CCOCC3)c3ccccc23)cc1 [Doramapimod] + O=C(CCCCCCC(=O)Nc1ccccc1)NO [Vorinostat] (partner 1 µM)
Summary of the method: (§1)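 Lung cancer cell lines were pin-tool dosed in 1536-well plates on the day after seeding, with either a lone drug or a fixed anchor-drug dose plus five library-drug doses (not always all listed) in √10 steps. Nuclei were counted on 4× images after 5 days. Relative viability is the ratio of treated-well to vehicle-well nuclei counts, with each value a median of duplicate plates.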

[2] = compound: Cc1ccc(-n2nc(C(C)(C)C)cc2NC(=O)Nc2ccc(OCCN3CCOCC3)c3ccccc23)cc1 [Doramapimod] + Nc1ncn([C@H]2C[C@H](O)[C@@H](CO)O2)c(=O)n1 [Decitabine] (partner 2 µM)
Summary of the method: as §1

[3] = compound: Cn1c(Nc2ccc(C(F)(F)F)cc2)nc2cc(Oc3ccnc(-c4ncc(C(F)(F)F)[nH]4)c3)ccc21 [RAF265] + O=C(CCCCCCC(=O)Nc1ccccc1)NO [Vorinostat] (partner 1 µM)
Summary of the method: as §1

[4] = compound: Cc1ccc(-n2nc(C(C)(C)C)cc2NC(=O)Nc2ccc(OCCN3CCOCC3)c3ccccc23)cc1 [Doramapimod] + C[C@@H](Oc1cc(-c2cnn(C3CCNCC3)c2)cnc1N)c1c(Cl)ccc(F)c1Cl [Crizotinib] (partner 1 µM)
Summary of the method: as §1

Cell Line	relative viability ([1]; first compound 0.02 µM)	relative viability ([1]; first compound 0.06325 µM)	relative viability ([1]; first compound 0.2 µM)	relative viability ([1]; first compound 0.6325 µM)	relative viability ([1]; first compound 2 µM)	relative viability ([2]; first compound 0.02 µM)	relative viability ([2]; first compound 0.06325 µM)	relative viability ([2]; first compound 0.2 µM)	relative viability ([2]; first compound 0.6325 µM)	relative viability ([2]; first compound 2 µM)	relative viability ([3]; first compound 0.01 µM)	relative viability ([3]; first compound 0.03162 µM)	relative viability ([3]; first compound 0.1 µM)	relative viability ([3]; first compound 1 µM)	relative viability ([4]; first compound 0.02 µM)	relative viability ([4]; first compound 0.06325 µM)	relative viability ([4]; first compound 0.2 µM)	relative viability ([4]; first compound 0.6325 µM)	relative viability ([4]; first compound 2 µM)	relative viability ([3]; first compound 0.3162 µM)
EKVX	0.819	0.749	0.76	0.771	0.725	0.404	0.313	0.289	0.31	0.239	0.775	0.659	0.87	0.581	0.986	0.98	0.822	0.951	0.918	–
NCI-H1651	0.514	0.604	0.602	0.623	0.552	0.632	0.678	0.608	0.569	0.608	0.61	0.637	0.521	0.453	0.847	0.871	0.875	0.89	0.851	0.591
HCC-15	0.859	0.901	0.834	0.971	0.807	0.64	0.621	0.63	0.645	0.681	0.803	0.937	0.867	0.551	0.836	0.731	0.838	0.887	0.718	0.782
LCLC-103H	0.788	0.799	0.875	0.845	0.751	0.714	0.704	0.719	0.742	0.654	0.844	0.892	0.683	0.422	1.05	1.06	1.08	1.06	0.944	0.565
NCI-H23	0.633	0.563	0.554	0.656	0.473	0.359	0.288	0.358	0.329	0.265	0.701	0.496	0.39	0.229	0.685	0.435	0.488	0.539	0.595	0.248
NCI-H596	0.643	0.672	0.616	0.605	0.561	1	0.97	1.02	0.995	1	0.809	0.642	0.642	0.522	0.95	0.95	1.02	1.01	1	0.589
NCI-H460	0.773	0.817	0.76	0.794	0.551	0.499	0.434	0.487	0.553	0.46	0.756	0.692	0.671	0.642	0.807	0.806	0.986	0.846	0.794	0.668
HCC-366	0.329	0.421	0.44	0.42	0.32	0.373	0.276	0.315	0.37	0.28	0.307	0.344	0.252	0.146	0.612	0.513	0.487	0.451	0.398	0.205
NCI-H2085	0.827	0.821	0.782	0.872	0.722	0.612	0.526	0.563	0.584	0.56	0.891	0.714	0.82	0.803	0.86	0.871	0.851	0.95	0.655	0.788
PC-14	0.802	0.751	0.727	0.898	0.578	0.261	0.22	0.215	0.277	0.197	0.743	0.642	0.632	0.619	0.896	0.913	0.906	0.855	0.853	–
HOP-62	0.653	0.714	0.721	0.606	0.623	0.267	0.268	0.176	0.208	0.211	0.664	0.542	0.56	0.332	0.888	1.02	1.12	0.597	0.968	0.507
NCI-H2087	0.932	0.764	0.668	0.718	0.669	0.286	0.206	0.277	0.232	0.201	0.634	0.359	0.757	0.719	0.982	0.888	0.922	0.908	0.988	0.864
PC-3 [JPC-3]	0.967	1.39	1.22	0.564	0.744	0.834	0.816	0.857	0.888	0.766	0.942	0.78	1.08	0.487	1	1	1.06	1.08	0.955	0.455
H3255	0.864	0.884	0.818	–	0.84	0.688	0.581	0.767	–	0.569	0.889	0.748	0.804	0.413	0.919	0.785	0.893	0.851	0.852	0.231
EMC-BAC-2	0.49	0.867	0.78	0.256	0.433	1	0.905	0.99	0.955	0.858	0.449	0.359	0.306	0.103	0.716	0.758	0.792	0.771	0.699	0.141
NCI-H650	0.534	0.568	0.423	0.414	0.456	0.326	0.339	0.35	0.323	0.325	0.442	0.418	0.42	0.232	0.77	0.661	0.826	0.783	0.668	0.277
SK-MES-1	1.21	1.09	1.07	1.12	1.11	0.329	0.355	0.356	0.424	0.315	1.12	0.772	0.519	0.343	1.01	0.977	0.933	0.917	0.887	0.398
NCI-H1355	0.621	0.577	0.64	0.704	0.566	0.372	0.357	0.347	0.407	0.359	0.641	0.607	0.578	0.419	0.981	1.08	1.11	1.04	1.03	0.604
NCI-H838	0.749	0.749	0.766	0.808	0.726	0.455	0.477	0.499	0.476	0.472	0.735	0.716	0.72	0.632	0.847	0.807	0.872	1.01	0.799	0.691
LK-2	0.283	0.296	0.266	0.242	0.29	0.294	0.288	0.25	0.232	0.266	0.361	0.245	0.328	0.2	0.246	0.266	0.207	0.207	0.205	0.404
NCI-H1650	0.571	0.586	0.553	0.729	0.528	0.412	0.409	0.515	0.409	0.283	0.615	0.587	0.595	0.566	0.969	1.02	1.13	1.04	1.02	0.655
NCI-H322M	0.889	0.943	0.979	0.998	0.94	0.722	0.671	0.736	0.785	0.706	0.875	0.866	0.516	0.348	0.899	0.949	1.02	1.02	0.924	0.403
NCI-H661	0.815	0.74	0.797	0.788	0.767	0.563	0.564	0.63	0.631	0.492	0.834	0.698	0.639	0.568	1.15	1.07	1	0.964	1.03	0.554
NCI-H520	0.672	0.755	0.653	0.731	0.609	0.408	0.46	0.536	0.552	0.424	0.777	0.579	0.688	0.55	0.614	0.767	0.709	0.803	0.52	0.572
NCI-H441	0.72	0.851	0.591	0.798	0.644	0.238	0.216	0.268	0.238	0.194	0.802	0.712	0.643	0.421	0.96	0.512	0.67	0.741	0.549	0.715
